These results are taken from patent publication US20110105509A1 (Wyeth, LLC, priority 2009, published 2011).

This test deals with T1, CRTH2 (Homo sapiens, UniProt Q9Y5Y4).
T1 construct: expressed in transfected cells; host or cells: CHO cells
T1 sequence (Q9Y5Y4 1-395): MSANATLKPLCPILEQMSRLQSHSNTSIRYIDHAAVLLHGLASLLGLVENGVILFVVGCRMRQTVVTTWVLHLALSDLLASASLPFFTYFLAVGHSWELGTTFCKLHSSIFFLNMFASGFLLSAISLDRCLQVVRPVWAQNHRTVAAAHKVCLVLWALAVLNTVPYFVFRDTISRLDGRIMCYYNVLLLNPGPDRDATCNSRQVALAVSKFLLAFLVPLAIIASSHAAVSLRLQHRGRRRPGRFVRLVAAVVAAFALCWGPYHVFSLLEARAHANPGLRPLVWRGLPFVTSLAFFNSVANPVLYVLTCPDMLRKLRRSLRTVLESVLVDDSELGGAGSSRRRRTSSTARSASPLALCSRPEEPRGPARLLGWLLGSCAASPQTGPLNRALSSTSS
As to the kind of experiment: FRET based competitive immunoassay (cAMP) in CRTH2 expressing CHO cells. It is filed as cell-based. As to conditions: CRTH2 expressing CHO cells incubated with forskolin and PGD2; Eu3+ cryptate-labeled anti-cAMP and d2-labeled cAMP. The protocol: FRET Assay: To evaluate potency compounds were tested in a FRET based competitive immunoassay in which CRTH2 expressing CHO cells were incubated in the presence of forskolin and PGD2 along with Eu3+ cryptate-labeled anti-cAMP and d2-labeled cAMP.
On to `Cc1c(-c2nn(Cc3cc(F)ccc3F)c(=O)c3ccccc23)c2cc(Cl)ccc2n1CC(=O)O` [Example 59, 2-(5-Chloro-3-(3-(2,5-difluorobenzyl)-4-oxo-3,4-dihydrophthalazin-1-yl)-2-methyl-1H-indol-1-yl)acetic acid], for which the IC50 was 12 nM.

Consider `Cc1c(-c2nn(Cc3cc(F)c(F)cc3F)c(=O)c3ccccc23)c2cc(Cl)ccc2n1CC(=O)O` [Example 60, 2-(5-chloro-2-methyl-3-(4-oxo-3-(2,4,5-trifluorobenzyl)-3,4-dihydro-phthalazin-1-yl)-1H-indol-1-yl)acetic acid], for which the IC50 was determined as 11 nM.

On to `Cc1c(-c2nn(Cc3ccc(F)cc3F)c(=O)c3ccccc23)c2cc(Cl)ccc2n1CC(=O)O` [Example 61, 2-(5-chloro-3-(3-(2,4-difluorobenzyl)-4-oxo-3,4-dihydrophthalazin-1-yl)-2-methyl-1H-indol-1-yl)acetic acid], for which the IC50 was 11 nM.

Molecule `Cc1c(-c2nn(Cc3cc(F)ccc3F)c(=O)c3ccccc23)c2cc(F)ccc2n1CC(=O)O` [Example 62, 2-(3-(3-(2,5-difluorobenzyl)-4-oxo-3,4-dihydrophthalazin-1-yl)-5-fluoro-2-methyl-1H-indol-1-yl)acetic acid] displayed an IC50 of 9 nM.

The molecule `Cc1c(-c2nn(Cc3cc(F)c(F)cc3F)c(=O)c3ccccc23)c2cc(F)ccc2n1CC(=O)O` [Example 63, 2-(5-fluoro-2-methyl-3-(4-oxo-3-(2,4,5-trifluorobenzyl)-3,4-dihydro-phthalazin-1-yl)-1H-indol-1-yl)acetic acid] showed an IC50 of 15 nM.

Regarding `Cc1c(-c2nn(Cc3ccc(F)cc3F)c(=O)c3ccccc23)c2cc(F)ccc2n1CC(=O)O` [Example 64, 2-(3-(3-(2,4-difluorobenzyl)-4-oxo-3,4-dihydrophthalazin-1-yl)-5-fluoro-2-methyl-1H-indol-1-yl)acetic acid], the IC50 worked out at 9 nM.

In turn, `Cc1c(-c2nn(Cc3ccc(S(C)(=O)=O)cc3)c(=O)c3ccccc23)c2cc(F)ccc2n1CC(=O)O` [Example 65, 2-(5-fluoro-2-methyl-3-(3-(4-(methylsulfonyl)benzyl)-4-oxo-3,4-dihydro-phthalazin-1-yl)-1H-indol-1-yl)acetic acid] gave an IC50 of 18 nM.

`Cc1c(-c2ccc(=O)n(Cc3ccc(S(C)(=O)=O)cc3)n2)c2cc(Cl)ccc2n1CC(=O)O` [Example 66, 2-(5-chloro-2-methyl-3-(1-(4-(methylsulfonyl)benzyl)-6-oxo-1,6-dihydropyridazin-3-yl)-1H-indol-1-yl)acetic acid]: the IC50 came to 143 nM.

With `Cc1c(-c2ccc(=O)n(Cc3cc(F)ccc3F)n2)c2cc(Cl)ccc2n1CC(=O)O` [Example 67, 2-(5-chloro-3-(1-(2,5-difluorobenzyl)-6-oxo-1,6-dihydropyridazin-3-yl)-2-methyl-1H-indol-1-yl)acetic acid], the IC50 came out at 23 nM.

`Cc1c(-c2ccc(=O)n(Cc3ccc(F)cc3F)n2)c2cc(Cl)ccc2n1CC(=O)O` [Example 68, 2-(5-chloro-3-(1-(2,4-difluorobenzyl)-6-oxo-1,6-dihydropyridazin-3-yl)-2-methyl-1H-indol-1-yl)acetic acid] gave an IC50 of 10 nM.

As for `Cc1c(-c2ccc(=O)n(Cc3cc(F)c(F)cc3F)n2)c2cc(Cl)ccc2n1CC(=O)O` [Example 69, 2-(5-chloro-2-methyl-3-(6-oxo-1-(2,4,5-trifluorobenzyl)-1,6-dihydropyridazin-3-yl)-1H-indol-1-yl)acetic acid], the IC50 was 7 nM.

Molecule `Cc1c(-c2ccc(=O)n(Cc3cc(F)c(F)cc3F)n2)c2cc(F)ccc2n1CC(=O)O` [Example 70, 2-(5-fluoro-2-methyl-3-(6-oxo-1-(2,4,5-trifluorobenzyl)-1,6-dihydro-pyridazin-3-yl)-1H-indol-1-yl)acetic acid] had an IC50 of 16 nM.

As to `Cc1c(-c2ccc(=O)n(Cc3ccc(F)cc3F)n2)c2cc(F)ccc2n1CC(=O)O` [Example 71, 2-(3-(1-(2,4-difluorobenzyl)-6-oxo-1,6-dihydropyridazin-3-yl)-5-fluoro-2-methyl-1H-indol-1-yl)acetic acid], the IC50 was determined as 17 nM.

`Cc1c(-c2ccc(=O)n(Cc3cc(F)ccc3F)n2)c2cc(F)ccc2n1CC(=O)O` [Example 72, 2-(3-(1-(2,5-Difluorobenzyl)-6-oxo-1,6-dihydropyridazin-3-yl)-5-fluoro-2-methyl-1H-indol-1-yl)acetic acid] returned an IC50 of 43 nM.

Molecule `Cc1c(-c2ccc(=O)n(Cc3ccc(S(C)(=O)=O)cc3)n2)c2cc(F)ccc2n1CC(=O)O` [Example 73, 2-(5-fluoro-2-methyl-3-(1-(4-(methylsulfonyl)benzyl)-6-oxo-1,6-dihydro-pyridazin-3-yl)-1H-indol-1-yl)acetic acid] had an IC50 of 76 nM.

The molecule `Cc1c(Cc2ccc(=O)n(Cc3ccccc3F)n2)c2ccccc2n1CC(=O)O` [Example 74, 2-(3-((1-(2-fluorobenzyl)-6-oxo-1,6-dihydropyridazin-3-yl)methyl)-2-methyl-1H-indol-1-yl)acetic acid] registered an IC50 of 2 nM.

`Cc1c(Cc2ccc(=O)n(Cc3cccc(F)c3)n2)c2ccccc2n1CC(=O)O` [Example 75, 2-(3-((1-(3-fluorobenzyl)-6-oxo-1,6-dihydropyridazin-3-yl)methyl)-2-methyl-1H-indol-1-yl)acetic acid] registered an IC50 of 101 nM.

For `Cc1c(Cc2ccc(=O)n(Cc3ccc(F)cc3)n2)c2ccccc2n1CC(=O)O` [Example 76, 2-(3-((1-(4-fluorobenzyl)-6-oxo-1,6-dihydropyridazin-3-yl)methyl)-2-methyl-1H-indol-1-yl)acetic acid], the IC50 was 16 nM.

Molecule `Cc1c(Cc2ccc(=O)n(Cc3ccccc3)n2)c2ccccc2n1CC(=O)O` [Example 77, 2-(3-((1-Benzyl-6-oxo-1,6-dihydropyridazin-3-yl)methyl)-2-methyl-1H-indol-1-yl)acetic acid] displayed an IC50 of 32 nM.

The molecule `Cc1c(CC2=NN(Cc3ccccc3)C(=O)CC2)c2cc(F)ccc2n1CC(=O)O` [Example 78, 2-(3-((1-Benzyl-6-oxo-1,4,5,6-tetrahydropyridazin-3-yl)methyl)-5-fluoro-2-methyl-1H-indol-1-yl)acetic acid] showed an IC50 of 2 nM.

The molecule `Cc1c(Cc2ccc(=O)n(Cc3cccc(F)c3F)n2)c2ccccc2n1CC(=O)O` [Example 79, 2-(3-((1-(2,3-difluorobenzyl)-6-oxo-1,6-dihydropyridazin-3-yl)methyl)-2-methyl-1H-indol-1-yl)acetic acid] displayed an IC50 of 22 nM.

For `Cc1c(Cc2ccc(=O)n(Cc3ccccc3)n2)c2cc(Cl)ccc2n1CC(=O)O` [Example 80, 2-(3-((1-Benzyl-6-oxo-1,6-dihydropyridazin-3-yl)methyl)-5-chloro-2-methyl-1H-indol-1-yl)acetic acid], the IC50 was 16 nM.

`Cc1c(Cc2ccc(=O)n(Cc3ccc(C(F)(F)F)cc3)n2)c2cc(Cl)ccc2n1CC(=O)O` [Example 81, 2-(5-Chloro-2-methyl-3-((6-oxo-1-(4-(trifluoromethyl)benzyl)-1,6-dihydropyridazin-3-yl)-methyl)-1H-indol-1-yl)acetic acid] registered an IC50 of 23 nM.

`Cc1c(Cc2ccc(=O)n(Cc3ccc(C(F)(F)F)cc3)n2)c2cc(F)ccc2n1CC(=O)O` [Example 82, 2-(5-fluoro-2-methyl-3-((6-oxo-1-(4-(trifluoromethyl)benzyl)-1,6-dihydro-pyridazin-3-yl)methyl)-1H-indol-1-yl)acetic acid] yielded an IC50 of 16 nM.
